Laboratory results as given in patent US10519152B2, “Compounds and their use in treating cancer” (AstraZeneca AB, priority 2017, dated 2019).

Target: T1, Estrogen Receptor (ERα) in MCF-7 human ductal carcinoma breast cell line (Homo sapiens, UniProt P03372)
T1 construct: endogenous in cells; host or cells: MCF-7
T1 sequence (P03372 1-595): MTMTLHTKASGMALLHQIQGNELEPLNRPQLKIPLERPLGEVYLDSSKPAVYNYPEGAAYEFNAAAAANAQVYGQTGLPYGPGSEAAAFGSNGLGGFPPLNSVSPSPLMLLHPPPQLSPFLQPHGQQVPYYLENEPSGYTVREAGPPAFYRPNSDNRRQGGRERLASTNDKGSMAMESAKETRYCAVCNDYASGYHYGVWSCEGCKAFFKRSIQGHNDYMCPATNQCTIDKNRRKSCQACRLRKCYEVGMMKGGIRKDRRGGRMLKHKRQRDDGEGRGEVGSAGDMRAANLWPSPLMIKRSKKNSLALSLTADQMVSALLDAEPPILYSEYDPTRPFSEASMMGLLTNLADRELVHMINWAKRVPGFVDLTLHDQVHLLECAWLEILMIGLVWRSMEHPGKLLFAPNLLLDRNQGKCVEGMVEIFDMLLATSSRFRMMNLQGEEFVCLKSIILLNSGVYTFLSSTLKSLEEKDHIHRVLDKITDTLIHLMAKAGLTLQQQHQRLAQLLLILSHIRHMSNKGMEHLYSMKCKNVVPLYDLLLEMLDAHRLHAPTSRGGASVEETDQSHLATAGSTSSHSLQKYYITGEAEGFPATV
Test: MCF-7 ER degradation assay (cell based immuno-fluorescence)
Conditions: MCF-7 cells; for ER degradation ≥ 90% at 0.3 μM: ER degradation by fulvestrant at 0.3 μM is defined as 100%; for DC50: 18-22 hours incubation, 50% reduction of ERα expression, single experiment or average of two or more, read-out: MCF-7 ER degradation IC50
In short: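 MCF-7 human ductal carcinoma breast cells were seeded at 3.75×10^4 cells per mL (40 μL per well) in 384 well plates with phenol red free DMEM containing 2 mM L-Glutamine and 5% (v/v) Charcoal/Dextran treated foetal calf serum. After overnight culture, compounds were acoustically dispensed, incubated 18-22 hours, then cells were formaldehyde-fixed and immunostained for ERα.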

Compound | ER degradation ≥ 90% at 0.3 μM | DC50 [nM]
Cc1ncsc1-c1ccc(CNC(=O)[C@@H]2C[C@@H](O)CN2C(=O)[C@@H](NC(=O)C(F)(F)OCCOCCCCOc2cc(F)c([C@@H]3c4[nH]c5ccccc5c4C[C@@H](C)N3CC(C)(C)F)c(F)c2)C(C)(C)C)cc1 [Example 121, (2S,4R)-1-((S)-2-(2-(2-(4-(3,5-Difluoro-4-((1R,3R)-2-(2-fluoro-2-methylpropyl)-3-methyl-2,3,4,9-tetrahydro-1H-pyrido[3,4-b]indol-1-yl)phenoxy)butoxy)ethoxy)-2,2-difluoroacetamido)-3,3-dimethylbutanoyl)-4-hydroxy-N-(4-(4-methylthiazol-5-yl)benzyl)pyrrolidine-2-carboxamide] | • | 2.6
Cc1ncsc1-c1ccc([C@H](C)NC(=O)[C@@H]2C[C@@H](O)CN2C(=O)[C@@H](NC(=O)C(F)(F)OCCOCCCCOc2cc(F)c([C@@H]3c4[nH]c5ccccc5c4C[C@@H](C)N3CC(C)(C)F)c(F)c2)C(C)(C)C)cc1 [Example 122, (2S,4R)-1-((S)-2-(2-(2-(4-(3,5-Difluoro-4-((1R,3R)-2-(2-fluoro-2-methylpropyl)-3-methyl-2,3,4,9-tetrahydro-1H-pyrido[3,4-b]indol-1-yl)phenoxy)butoxy)ethoxy)-2,2-difluoroacetamido)-3,3-dimethylbutanoyl)-4-hydroxy-N—((S)-1-(4-(4-methylthiazol-5-yl)phenyl)ethyl)pyrrolidine-2-carboxamide] | • | 2
Cc1ncsc1-c1ccc(CNC(=O)[C@@H]2C[C@@H](O)CN2C(=O)[C@@H](NC(=O)COCC(F)(F)COCCCOc2cc(F)c([C@@H]3c4[nH]c5ccccc5c4C[C@@H](C)N3CC(C)(C)F)c(F)c2)C(C)(C)C)cc1 [Example 125, (2S,4R)-1-((S)-2-(2-(3-(3-(3,5-Difluoro-4-((1R,3R)-2-(2-fluoro-2-methylpropyl)-3-methyl-2,3,4,9-tetrahydro-1H-pyrido[3,4-b]indol-1-yl)phenoxy)propoxy)-2,2-difluoropropoxy)acetamido)-3,3-dimethylbutanoyl)-4-hydroxy-N-(4-(4-methylthiazol-5-yl)benzyl)pyrrolidine-2-carboxamide] | •• | 0.7
Cc1ncsc1-c1ccc(CNC(=O)[C@@H]2C[C@@H](O)CN2C(=O)[C@@H](NC(=O)COCCOCCC(F)(F)CCOc2cc(F)c([C@@H]3c4[nH]c5ccccc5c4C[C@@H](C)N3CC(C)(C)F)c(F)c2)C(C)(C)C)cc1 [Example 127, (2S,4R)-1-((S)-2-(2-(2-((5-(3,5-Difluoro-4-((R,3R)-2-(2-fluoro-2-methylpropyl)-3-methyl-2,3,4,9-tetrahydro-1H-pyrido[3,4-b]indol-1-yl)phenoxy)-3,3-difluoropentyl)oxy)ethoxy)acetamido)-3,3-dimethylbutanoyl)-4-hydroxy-N-(4-(4-methylthiazol-5-yl)benzyl)pyrrolidine-2-carboxamide] | •• | 0.8
Cc1ncsc1-c1ccc(CNC(=O)[C@@H]2C[C@@H](O)CN2C(=O)[C@@H](NC(=O)COCCOCCCCOc2cc(F)c([C@@H]3c4[nH]c5ccccc5c4C[C@@H](C)N3CC(C)(C)F)c(F)c2)C(C)(C)C)cc1 [Example 128, (2S,4R)-1-((S)-2-(2-(2-(4-(3,5-Difluoro-4-((1R,3R)-2-(2-fluoro-2-methylpropyl)-3-methyl-2,3,4,9-tetrahydro-1H-pyrido[3,4-b]indol-1-yl)phenoxy)butoxy)ethoxy)acetamido)-3,3-dimethylbutanoyl)-4-hydroxy-N-(4-(4-methylthiazol-5-yl)benzyl)pyrrolidine-2-carboxamide] | •• | 0.6
Cc1ncsc1-c1ccc(CNC(=O)[C@@H]2C[C@@H](O)CN2C(=O)[C@@H](NC(=O)COCCCOCCCCOc2cc(F)c([C@@H]3c4[nH]c5ccccc5c4C[C@@H](C)N3CC(C)(C)F)c(F)c2)C(C)(C)C)cc1 [Example 129, (2S,4R)-1-((S)-2-(2-(3-(4-(3,5-Difluoro-4-((1R,3R)-2-(2-fluoro-2-methylpropyl)-3-methyl-2,3,4,9-tetrahydro-1H-pyrido[3,4-b]indol-1-yl)phenoxy)butoxy)propoxy)acetamido)-3,3-dimethylbutanoyl)-4-hydroxy-N-(4-(4-methylthiazol-5-yl)benzyl)pyrrolidine-2-carboxamide] | •• | 0.8
Cc1ncsc1-c1ccc(CNC(=O)[C@@H]2C[C@@H](O)CN2C(=O)[C@@H](NC(=O)COCCC(F)(F)CCOc2cc(F)c([C@@H]3c4[nH]c5ccccc5c4C[C@@H](C)N3CC(C)(C)F)c(F)c2)C(C)(C)C)cc1 [Example 130, (2S,4R)-1-((S)-2-(2-((5-(3,5-Difluoro-4-((1R,3R)-2-(2-fluoro-2-methylpropyl)-3-methyl-2,3,4,9-tetrahydro-1H-pyrido[3,4-b]indol-1-yl)phenoxy)-3,3-difluoropentyl)oxy)acetamido)-3,3-dimethylbutanoyl)-4-hydroxy-N-(4-(4-methylthiazol-5-yl)benzyl)pyrrolidine-2-carboxamide] | • | 0.5
Cc1ncsc1-c1ccc(CNC(=O)[C@@H]2C[C@@H](O)CN2C(=O)[C@@H](NC(=O)CNCCC(F)(F)CCOc2cc(F)c([C@@H]3c4[nH]c5ccccc5c4C[C@@H](C)N3CC(C)(C)F)c(F)c2)C(C)(C)C)cc1 [Example 131, (2S,4R)-1-((S)-2-(2-((5-(3,5-Difluoro-4-((1R,3R)-2-(2-fluoro-2-methylpropyl)-3-methyl-2,3,4,9-tetrahydro-1H-pyrido[3,4-b]indol-1-yl)phenoxy)-3,3-difluoropentyl)amino)acetamido)-3,3-dimethylbutanoyl)-4-hydroxy-N-(4-(4-methylthiazol-5-yl)benzyl)pyrrolidine-2-carboxamide] | • | 0.8
Cc1ncsc1-c1ccc(CNC(=O)[C@@H]2C[C@@H](O)CN2C(=O)[C@@H](NC(=O)COCc2cccc(COc3cc(F)c([C@@H]4c5[nH]c6ccccc6c5C[C@@H](C)N4CC(C)(C)F)c(F)c3)n2)C(C)(C)C)cc1 [Example 132, (2S,4R)-1-((S)-2-(2-((6-((3,5-Difluoro-4-((1R,3R)-2-(2-fluoro-2-methylpropyl)-3-methyl-2,3,4,9-tetrahydro-1H-pyrido[3,4-b]indol-1-yl)phenoxy)methyl)pyridin-2-yl)methoxy)acetamido)-3,3-dimethylbutanoyl)-4-hydroxy-N-(4-(4-methylthiazol-5-yl)benzyl)pyrrolidine-2-carboxamide] | • | 0.6
Cc1ncsc1-c1ccc(CNC(=O)[C@@H]2C[C@@H](O)CN2C(=O)[C@@H](NC(=O)COCc2ccnc(COc3cc(F)c([C@@H]4c5[nH]c6ccccc6c5C[C@@H](C)N4CC(C)(C)F)c(F)c3)c2)C(C)(C)C)cc1 [Example 134, (2S,4R)-1-((S)-2-(2-((2-((3,5-Difluoro-4-((1R,3R)-2-(2-fluoro-2-methylpropyl)-3-methyl-2,3,4,9-tetrahydro-1H-pyrido[3,4-b]indol-1-yl)phenoxy)methyl)pyridin-4-yl)methoxy)acetamido)-3,3-dimethylbutanoyl)-4-hydroxy-N-(4-(4-methylthiazol-5-yl)benzyl)pyrrolidine-2-carboxamide] | • | 0.5
Cc1ncsc1-c1ccc(CNC(=O)[C@@H]2C[C@@H](O)CN2C(=O)[C@@H](NC(=O)COCCCCCOCCCOc2cc(F)c([C@@H]3c4[nH]c5ccccc5c4C[C@@H](C)N3CC(C)(C)F)c(F)c2)C(C)(C)C)cc1 [Example 136, (2S,4R)-1-((S)-2-(2-((5-(3-(3,5-Difluoro-4-((1R,3R)-2-(2-fluoro-2-methylpropyl)-3-methyl-2,3,4,9-tetrahydro-1H-pyrido[3,4-b]indol-1-yl)phenoxy)propoxy)pentyl)oxy)acetamido)-3,3-dimethylbutanoyl)-4-hydroxy-N-(4-(4-methylthiazol-5-yl)benzyl)pyrrolidine-2-carboxamide] | •• | 1.1
Cc1ncsc1-c1ccc([C@H](C)NC(=O)[C@@H]2C[C@@H](O)CN2C(=O)[C@@H](NC(=O)COCCCOCCCCCOc2cc(F)c([C@@H]3c4[nH]c5ccccc5c4C[C@@H](C)N3CC(C)(C)F)c(F)c2)C(C)(C)C)cc1 [Example 137, (2S,4R)-1-((S)-2-(2-(3-((5-(3,5-Difluoro-4-((R,3R)-2-(2-fluoro-2-methylpropyl)-3-methyl-2,3,4,9-tetrahydro-1H-pyrido[3,4-b]indol-1-yl)phenoxy)pentyl)oxy)propoxy)acetamido)-3,3-dimethylbutanoyl)-4-hydroxy-N—((S)-1-(4-(4-methylthiazol-5-yl)phenyl)ethyl)pyrrolidine-2-carboxamide] | •• | 0.8
